The values below come from patent US11414384B2, “P300/CBP hat inhibitors” (Constellation Pharmaceuticals, Inc., priority 2018, dated 2022).

One may read the IC50 as the point on the concentration scale where inhibition reaches its midpoint. By EC50 is commonly meant the midpoint of the concentration-response curve. Low readings indicate an effect from little substance, high ones a need for much substance.

The target of one assay is full length p300 (Homo sapiens (Human), UniProt Q09472). Description: full length p300 SPA assay. The assay is classed as biochemical. The note with it: average of at least 2 replicate titrations, read-out: FL P300 IC50. Here is the method: Reactions were initiated with 12.5 μL 2 μM biotinylated H3(1-21) peptide (New England Peptide) and run for 1 hr at RT, then quenched with 20 μL stop solution (200 mM Tris pH 8.0, 200 mM EDTA, 2M NaCl, 160 μM anacardic acid). 35 μL of the reaction volume was transferred to a 384-well streptavidin FlashPlate (PerkinElmer) using a Bravo liquid handler (Velocity 11) and incubated for 1.5 hr at RT. Plates were aspirated, washed with 95 μL wash buffer (15 mM Tris pH 8.5, 0.069 μM Brij-35), aspirated, sealed, and scintillation counts read on a Topcount (PerkinElmer). Data were analyzed in Genedata to determine inhibitor IC50 values.
Sequence of full length p300 (Q09472 whole entry): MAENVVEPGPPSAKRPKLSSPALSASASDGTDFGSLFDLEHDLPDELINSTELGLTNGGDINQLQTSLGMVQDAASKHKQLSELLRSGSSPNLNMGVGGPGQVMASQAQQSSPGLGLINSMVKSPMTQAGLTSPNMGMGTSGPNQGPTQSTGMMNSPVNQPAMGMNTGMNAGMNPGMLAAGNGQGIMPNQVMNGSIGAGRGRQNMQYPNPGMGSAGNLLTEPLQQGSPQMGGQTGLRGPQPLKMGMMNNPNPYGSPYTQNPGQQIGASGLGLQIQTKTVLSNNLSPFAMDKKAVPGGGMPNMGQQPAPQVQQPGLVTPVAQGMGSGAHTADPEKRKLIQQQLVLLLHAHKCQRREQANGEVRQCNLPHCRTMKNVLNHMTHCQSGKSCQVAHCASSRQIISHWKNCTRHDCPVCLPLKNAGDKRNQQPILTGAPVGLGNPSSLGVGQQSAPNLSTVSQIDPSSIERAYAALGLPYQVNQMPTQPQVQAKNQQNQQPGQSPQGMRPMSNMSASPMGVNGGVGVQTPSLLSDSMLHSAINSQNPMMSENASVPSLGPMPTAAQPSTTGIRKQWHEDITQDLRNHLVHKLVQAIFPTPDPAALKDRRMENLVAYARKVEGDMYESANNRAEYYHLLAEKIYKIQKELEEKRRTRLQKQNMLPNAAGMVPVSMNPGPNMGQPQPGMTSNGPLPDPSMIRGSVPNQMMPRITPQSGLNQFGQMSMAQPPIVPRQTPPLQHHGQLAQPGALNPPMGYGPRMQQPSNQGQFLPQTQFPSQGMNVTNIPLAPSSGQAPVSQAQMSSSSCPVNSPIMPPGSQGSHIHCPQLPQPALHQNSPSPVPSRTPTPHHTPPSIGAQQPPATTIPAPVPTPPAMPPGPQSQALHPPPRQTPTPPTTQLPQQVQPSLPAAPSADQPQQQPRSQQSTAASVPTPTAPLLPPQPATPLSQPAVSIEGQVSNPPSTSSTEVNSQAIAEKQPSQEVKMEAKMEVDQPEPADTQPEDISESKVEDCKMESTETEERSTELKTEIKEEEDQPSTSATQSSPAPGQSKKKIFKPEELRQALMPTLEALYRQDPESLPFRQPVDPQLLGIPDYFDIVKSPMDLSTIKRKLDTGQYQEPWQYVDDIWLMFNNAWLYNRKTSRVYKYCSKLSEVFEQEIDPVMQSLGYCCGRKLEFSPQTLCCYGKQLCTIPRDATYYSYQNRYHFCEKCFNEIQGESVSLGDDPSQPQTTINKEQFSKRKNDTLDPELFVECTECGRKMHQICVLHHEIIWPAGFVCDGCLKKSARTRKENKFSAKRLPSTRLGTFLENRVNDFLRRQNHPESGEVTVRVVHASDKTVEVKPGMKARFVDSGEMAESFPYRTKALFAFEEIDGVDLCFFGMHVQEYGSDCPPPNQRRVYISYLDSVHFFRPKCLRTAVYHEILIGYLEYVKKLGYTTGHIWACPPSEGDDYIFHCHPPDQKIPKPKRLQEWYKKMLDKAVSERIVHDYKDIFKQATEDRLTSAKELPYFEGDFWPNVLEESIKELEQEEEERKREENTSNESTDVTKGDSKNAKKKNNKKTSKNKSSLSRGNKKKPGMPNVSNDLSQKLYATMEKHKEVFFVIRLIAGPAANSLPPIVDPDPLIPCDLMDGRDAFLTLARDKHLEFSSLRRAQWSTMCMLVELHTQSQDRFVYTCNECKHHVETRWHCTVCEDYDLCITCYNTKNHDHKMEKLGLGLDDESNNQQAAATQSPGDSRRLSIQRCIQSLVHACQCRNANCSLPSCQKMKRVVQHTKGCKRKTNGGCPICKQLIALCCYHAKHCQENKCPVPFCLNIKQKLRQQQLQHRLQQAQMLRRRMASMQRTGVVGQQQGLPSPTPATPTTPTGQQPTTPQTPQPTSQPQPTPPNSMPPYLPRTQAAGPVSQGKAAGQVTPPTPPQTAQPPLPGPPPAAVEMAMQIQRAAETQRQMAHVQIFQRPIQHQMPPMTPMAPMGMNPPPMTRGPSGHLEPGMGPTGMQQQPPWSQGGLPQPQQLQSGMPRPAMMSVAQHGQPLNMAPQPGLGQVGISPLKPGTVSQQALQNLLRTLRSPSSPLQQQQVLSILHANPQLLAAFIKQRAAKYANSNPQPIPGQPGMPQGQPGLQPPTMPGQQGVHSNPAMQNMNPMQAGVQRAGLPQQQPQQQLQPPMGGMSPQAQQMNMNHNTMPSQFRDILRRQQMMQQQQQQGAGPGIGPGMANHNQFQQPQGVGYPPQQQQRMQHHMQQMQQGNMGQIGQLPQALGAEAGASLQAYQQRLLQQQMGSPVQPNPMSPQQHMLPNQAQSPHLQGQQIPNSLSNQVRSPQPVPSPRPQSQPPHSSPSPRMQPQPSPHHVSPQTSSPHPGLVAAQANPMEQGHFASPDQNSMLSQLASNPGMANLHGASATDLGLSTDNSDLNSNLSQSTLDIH
The full length p300 SPA assay was run following the same protocol as p300 HAT SPA assay, but used 6 nM purified full length p300 (purchased from Active Motif) in place of the purified p300-HAT domain.

Assay [1] concerns the target p300 HAT domain (residues 1287-1666) (Homo sapiens (Human), UniProt Q09472). Description: p300 HAT SPA assay (scintillation proximity assay, acetylation of biotinylated H3(1-21) peptide). The assay is classed as biochemical. The conditions noted are these: p300 HAT domain; average of at least 2 replicate titrations; read-out: P300 HAT SPA IC50. In outline: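 Purified p300 HAT domain reaction transferred to streptavidin plates to capture biotinylated H3(1-21) peptide, incubated 1.5 hr at RT, and read by scintillation proximity. IC50 values derived from concentration-response data.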
(In a scintillation proximity assay essentially only radioactivity close to the scintillant gives light.)

For assay [2], the system named is acetylation of chromatin at H3K18 (catalyzed by p300 and CBP) in HCT-116 cells. Kind of assay: H3K18Ac MSD cellular assay. The note with it: 2 hr treatment, average of at least 2 replicate titrations. The assay is classed as cell-based. A digest of the protocol:
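HCT-116 cells plated overnight in RPMI + 10% FBS, treated with compound for 2 h at 37 °C, then lysed. H3K18ac measured by MSD sandwich immunoassay: total-histone capture antibody, anti-H3K18ac detection, Sulfo-Tag anti-rabbit electrochemiluminescence read.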

Sequence of p300 HAT domain (residues 1287-1666) (Q09472 1287-1666): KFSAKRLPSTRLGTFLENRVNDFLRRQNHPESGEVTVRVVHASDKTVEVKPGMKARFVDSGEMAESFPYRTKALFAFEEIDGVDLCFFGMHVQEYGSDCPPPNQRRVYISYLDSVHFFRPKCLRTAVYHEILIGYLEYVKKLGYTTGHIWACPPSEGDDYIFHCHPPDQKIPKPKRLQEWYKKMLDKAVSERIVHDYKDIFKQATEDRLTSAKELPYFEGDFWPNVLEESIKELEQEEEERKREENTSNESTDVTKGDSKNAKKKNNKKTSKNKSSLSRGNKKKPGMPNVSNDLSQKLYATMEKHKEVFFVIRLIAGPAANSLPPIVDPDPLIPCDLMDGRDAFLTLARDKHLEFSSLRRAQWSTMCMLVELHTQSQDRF

For `CN1CCC(Oc2ccc3c(C(=O)C(NCCc4ccc(C#N)cc4)c4ccccc4)c[nH]c3c2)CC1` (single isomer, unassigned) [126 Isomer 2], the concentration for half-maximal inhibition (IC50) stood at 2.19 nM at full length p300 and 36.2 nM in assay [1]. The compound further yielded an EC50 in assay [2] (Homo sapiens, HCT-116, 2 h) of 154 nM.
As to `O=C(c1c[nH]c2cc(OCc3ccccc3)ccc12)C(NCCc1ccc(F)cc1)c1ccccc1` (single isomer, unassigned) [61 Isomer 2], the figures for the 50% inhibitory concentration (IC50) (on full length p300; in assay [1]) were 49.7 nM and 1070 nM, respectively. The same compound registered an EC50 in assay [2] (Homo sapiens, HCT-116, 2 h) of 825 nM.
Take `O=C(O)c1ccc(CCNC(C(=O)c2c[nH]c3ccccc23)c2ccccc2)cc1` (single isomer, unassigned) [132 Isomer 1]: the half-inhibitory concentration (IC50) on full length p300 was determined as 63.3 nM; in assay [1] it was 1830 nM. This compound also had a 50% effective concentration (EC50) in assay [2] (Homo sapiens, HCT-116, 2 h) of 4450 nM.
Regarding `CCNC(=O)c1ccc2c(C(=O)[C@@H](NCCc3ccc(C#N)cc3)c3ccccc3)c[nH]c2c1` (single isomer, unassigned) [146 Isomer 2], the figures for the IC50 (at full length p300; in assay [1]) were 14 nM and 26 nM, respectively. In addition, in assay [2], the concentration for a half-maximal effect (EC50) came out at 36.6 nM.
`O=C(c1c[nH]c2cc(-c3ccncc3)ccc12)C(NCCc1ccc(F)cc1)c1ccccc1` (single isomer, unassigned) [82 Isomer 2]: the figures for the half-inhibitory concentration (IC50) (at full length p300; in assay [1]) were 18.2 nM and 875 nM, respectively. Also, in assay [2], the EC50 was found to be 128 nM.
On to `CCNC(=O)c1ccc2c(C(=O)C(NCC(C)c3ccc(C#N)cc3)c3ccccc3)cnn2c1` (single isomer, unassigned) [69 Isomer 4], for which the IC50 stood at 17.9 nM at full length p300 and 20.7 nM in assay [1]. The compound further showed a concentration giving a half-maximal response (EC50) in assay [2] (Homo sapiens, HCT-116, 2 h) of 43.9 nM.
For `NC(=O)c1ccc(CCNC(C(=O)c2c[nH]c3ccccc23)c2ccccc2)cc1` (single isomer, unassigned) [133 Isomer 2], the IC50 on full length p300 stood at 101 nM; in assay [1] it was 2120 nM. The concentration giving a half-maximal response (EC50) in assay [2] (Homo sapiens, HCT-116, 2 h) came to 1440 nM.
